Test [1] relates to Escherichia coli. Description: microbe, parasite or virus in culture.
In test [2] the test system is Escherichia coli. Description: microbe, parasite or virus in culture. This is another data set of the same source.
Test [3] concerns HEK293. Description: inhibition of NOD1-driven NF-kB reporter – cell-based, luminescence, uHTS, primary screen (AID 1578). It counts as functional. The conditions noted are these: Homo sapiens.
Test [4] has as its system HEK293. Description: cells. It counts as functional, cell-based. Particulars: Homo sapiens.
Test [5] addresses T1, Heat shock factor protein 1 (Mus musculus, UniProt P38532).
T1 sequence (P38532 whole entry): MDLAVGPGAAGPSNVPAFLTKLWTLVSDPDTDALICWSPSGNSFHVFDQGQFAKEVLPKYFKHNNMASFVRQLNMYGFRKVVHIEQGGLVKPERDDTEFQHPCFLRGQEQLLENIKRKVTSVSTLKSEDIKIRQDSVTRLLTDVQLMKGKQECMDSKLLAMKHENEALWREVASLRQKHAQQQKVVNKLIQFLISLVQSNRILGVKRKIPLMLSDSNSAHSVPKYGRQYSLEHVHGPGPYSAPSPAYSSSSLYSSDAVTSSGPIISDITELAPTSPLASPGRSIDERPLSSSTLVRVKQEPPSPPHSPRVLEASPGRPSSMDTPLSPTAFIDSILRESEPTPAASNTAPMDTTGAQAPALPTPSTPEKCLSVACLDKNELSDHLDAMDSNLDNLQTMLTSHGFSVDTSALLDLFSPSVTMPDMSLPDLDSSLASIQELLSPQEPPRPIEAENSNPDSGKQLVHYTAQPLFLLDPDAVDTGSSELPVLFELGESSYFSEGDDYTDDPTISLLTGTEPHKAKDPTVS
Description: decrease of HSF1-responsive luciferase luminescence – cell-based, NIH3T3, dose retest, confirmation (AID 2382).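 Note: NIH3T3 fibroblasts with HSF1-driven luciferase reporter stressed by proteasome inhibitor MG132; luminescence from HSF1-driven luciferase expression after 8 hours of MG132 stress.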 It is filed as functional.

The subject of test [6] is HEK293. Description: cells. It is filed as functional, cell-based. The conditions noted are these: Homo sapiens. The source holds these as a separate data set.
The target in test [7] is Nucleotide-binding oligomerization domain-containing protein 2 (Homo sapiens, UniProt Q9HC29). The test is described as follows: inhibition of NOD2-driven NF-kB reporter – cell-based, luminescence, uHTS, HEK293 (AID 1566). It counts as functional.
The test system of test [8] is HEK293. Description: NOD2 signaling inhibitors in MDP-stimulated cells, cell-based, uHTS, luminescence (AID 2001). It is filed as functional. Particulars: Homo sapiens.
Test [9] has as its system HEK293. Description: cells. It is filed as functional, cell-based. Particulars: Homo sapiens. The source holds these as a separate data set.
In test [10] the target is Luciferin 4-monooxygenase (Photuris pensylvanica, UniProt Q27757). Description: inhibition of Cell Titer Glo luciferase signal – biochemical, luminescence, cherry-picks, counter-screen for HSF-1 reporter inhibitor project, dose response (AID 588847). For orientation: Cellular ATP, detected with luciferase, serves as a proxy for viable cell number.
Test [11] in a line: blockers of bursicon-stimulated LGR2 cAMP reporter – cell-based, HEK293, CRE-luciferase reporter, cherry pick, set 2, dose response (AID 743343).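 Note: transfected cells were stimulated with diluted bursicon conditioned medium after compound addition.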 It counts as functional. Background: In a reporter assay the amount or activity of a reporter protein is the signal.
A short description of test [12]: blockade of melanocortin 4 receptor signaling – cell-based, plate reader, cherry pick, counter-screen for LGR2 antagonist project, dose response (AID 743444).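 Note: transfected HEK 293 cells stimulated with alpha-MSH peptide; potency of inhibitors of the alpha-MSH evoked signal.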 It is filed as functional. On the technique in general: The purpose of a counterscreen is to sort out artefacts and off-target activity.
Test [13] can be described thus: viability loss in HEK293 cells – cell-based, plate reader, cherry-picked samples, cytotoxicity control, dose response (AID 743446). It is filed as functional.
Test [14] concerns the target T2, Microphthalmia-associated transcription factor (Homo sapiens, UniProt O75030).
T2 sequence (O75030 whole entry): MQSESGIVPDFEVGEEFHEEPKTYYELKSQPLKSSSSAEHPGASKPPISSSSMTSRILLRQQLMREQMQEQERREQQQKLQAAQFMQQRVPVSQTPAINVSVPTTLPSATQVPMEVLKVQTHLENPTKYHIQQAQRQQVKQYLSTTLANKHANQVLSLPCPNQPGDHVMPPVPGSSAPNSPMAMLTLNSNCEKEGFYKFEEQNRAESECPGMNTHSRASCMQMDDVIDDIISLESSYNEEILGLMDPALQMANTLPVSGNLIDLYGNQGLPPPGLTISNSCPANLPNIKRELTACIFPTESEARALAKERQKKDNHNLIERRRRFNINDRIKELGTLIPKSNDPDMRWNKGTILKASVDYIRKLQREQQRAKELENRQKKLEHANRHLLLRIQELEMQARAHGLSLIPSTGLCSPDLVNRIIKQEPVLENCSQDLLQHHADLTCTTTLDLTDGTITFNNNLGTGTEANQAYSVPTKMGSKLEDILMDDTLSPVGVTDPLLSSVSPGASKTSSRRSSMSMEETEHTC
The test is described as follows: reducers of TRPM1 reporter luminescence, concentration series – cell-based, SK-MEL-5, cherry-picked, set 3, MITF inhibitor project, dose response (AID 493073).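 Note: SK-MEL-5 melanoma cells with luciferase driven by the MITF target TRPM1 promoter.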 It is filed as functional.

A further test concerns A-375. Description: proliferation inhibition in MITF-low A375 cells – cell-based, cherry-pick samples, set 2, counter-screen for MITF modulator project, dose response (AID 540335). The conditions noted are these: Homo sapiens. It counts as functional.
The nature of test [15]: viability loss in HeLa cells – cytotoxicity control for MgcRacGAP inhibitor project, dose response (AID 624300). It counts as functional.
Test [16] concerns the target T3, Rac GTPase-activating protein 1 (Homo sapiens, UniProt Q9H0H5).
T3 sequence (Q9H0H5 whole entry): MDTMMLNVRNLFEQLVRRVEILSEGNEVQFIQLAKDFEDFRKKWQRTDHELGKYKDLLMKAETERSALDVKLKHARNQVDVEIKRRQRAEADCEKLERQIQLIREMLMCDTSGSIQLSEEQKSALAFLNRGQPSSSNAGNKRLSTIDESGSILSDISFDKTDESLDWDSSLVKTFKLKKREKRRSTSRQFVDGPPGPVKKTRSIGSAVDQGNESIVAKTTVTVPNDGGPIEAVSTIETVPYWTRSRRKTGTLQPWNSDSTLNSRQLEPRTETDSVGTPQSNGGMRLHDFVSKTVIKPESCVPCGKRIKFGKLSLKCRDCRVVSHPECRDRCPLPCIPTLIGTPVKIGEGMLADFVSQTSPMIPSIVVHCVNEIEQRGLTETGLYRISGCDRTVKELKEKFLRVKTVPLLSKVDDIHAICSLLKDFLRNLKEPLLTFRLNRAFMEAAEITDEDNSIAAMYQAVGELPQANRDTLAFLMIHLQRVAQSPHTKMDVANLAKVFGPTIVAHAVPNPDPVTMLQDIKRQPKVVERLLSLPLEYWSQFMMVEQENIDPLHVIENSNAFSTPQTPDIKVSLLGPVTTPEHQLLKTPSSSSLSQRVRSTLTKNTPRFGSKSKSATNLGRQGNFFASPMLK
The test is described as follows: blockers of MgcRacGAP-driven Rac1 GTP hydrolysis – biochemical, ADP Hunter fluorescence, primary and confirmatory, confirmation (AID 624330). It counts as functional.

The target of test [17] is T4, Short transient receptor potential channel 4 (Mus musculus, UniProt Q9QUQ5).
T4 sequence (Q9QUQ5 whole entry): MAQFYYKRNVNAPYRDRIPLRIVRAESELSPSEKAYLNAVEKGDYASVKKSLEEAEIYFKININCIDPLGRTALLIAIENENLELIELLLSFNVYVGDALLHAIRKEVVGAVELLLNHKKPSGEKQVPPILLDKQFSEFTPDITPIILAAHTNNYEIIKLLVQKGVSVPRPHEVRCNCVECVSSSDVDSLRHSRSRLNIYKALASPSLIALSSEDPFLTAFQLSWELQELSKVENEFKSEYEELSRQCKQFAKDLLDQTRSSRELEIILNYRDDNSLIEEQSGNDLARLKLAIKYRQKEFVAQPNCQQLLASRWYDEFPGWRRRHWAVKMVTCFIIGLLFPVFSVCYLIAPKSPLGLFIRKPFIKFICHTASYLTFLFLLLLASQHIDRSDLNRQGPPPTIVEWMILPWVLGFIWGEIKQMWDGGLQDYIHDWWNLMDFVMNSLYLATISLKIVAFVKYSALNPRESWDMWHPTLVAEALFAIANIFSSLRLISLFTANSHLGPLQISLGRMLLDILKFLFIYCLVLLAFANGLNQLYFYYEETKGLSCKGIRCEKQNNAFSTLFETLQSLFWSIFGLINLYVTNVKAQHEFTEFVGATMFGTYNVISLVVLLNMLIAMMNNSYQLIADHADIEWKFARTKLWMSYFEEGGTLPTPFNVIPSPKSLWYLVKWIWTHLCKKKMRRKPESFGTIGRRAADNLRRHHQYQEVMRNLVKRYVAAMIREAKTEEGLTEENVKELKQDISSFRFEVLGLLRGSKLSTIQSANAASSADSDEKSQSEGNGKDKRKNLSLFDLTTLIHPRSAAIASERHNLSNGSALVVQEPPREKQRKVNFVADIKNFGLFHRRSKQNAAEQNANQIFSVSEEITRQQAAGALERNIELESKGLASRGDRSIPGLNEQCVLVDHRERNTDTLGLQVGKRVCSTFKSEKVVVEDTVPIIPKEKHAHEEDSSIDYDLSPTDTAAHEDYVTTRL
Description: calcium entry via TRPC4 opening agents – cell-based, HEK293 TRPC4/mu-opioid, Fluo-4 calcium, dose response (AID 434937). It counts as functional.

The target in test [18] is Delta-type opioid receptor (Homo sapiens, UniProt P41143). The test is described as follows: Counterscreen for agonists of heterodimerization of the mu 1 (OPRM1) and delta 1 (OPRD1) opioid receptors: Luminescence-based cell-based high throughput dose response assay to identify agonists of OPRD1 homodimerization. [Related pubchem assays (depositor defined):AID504326, AID504355, AID504692, AID504904, AID504905]. It is filed as functional.

A further test addresses Mu-type opioid receptor (Homo sapiens, UniProt P35372). The test is described as follows: Counterscreen for agonists of heterodimerization of the mu 1 (OPRM1) and delta 1 (OPRD1) opioid receptors: Luminescence-based cell-based high throughput dose response assay to identify agonists of OPRM1 homodimerization. It counts as functional.
Test [19] has as its target 5-hydroxytryptamine receptor 5A (Homo sapiens, UniProt P47898). The test is described as follows: Counterscreen for agonists of OPRM1-OPRD1 heterodimerization: luminescence-based cell-based high throughput dose response assay to identify agonists of 5-hydroxytryptamine (serotonin) 5A receptor (HTR5A). [Related pubchem assays (depositor defined):AID504326, AID504355, AID504692, AID504904, AID504905]. It counts as functional.

SMILES strings stand for the structures. Calls of active or inactive are those of the source.

Chain of Luciferin 4-monooxygenase (Q27757 whole entry): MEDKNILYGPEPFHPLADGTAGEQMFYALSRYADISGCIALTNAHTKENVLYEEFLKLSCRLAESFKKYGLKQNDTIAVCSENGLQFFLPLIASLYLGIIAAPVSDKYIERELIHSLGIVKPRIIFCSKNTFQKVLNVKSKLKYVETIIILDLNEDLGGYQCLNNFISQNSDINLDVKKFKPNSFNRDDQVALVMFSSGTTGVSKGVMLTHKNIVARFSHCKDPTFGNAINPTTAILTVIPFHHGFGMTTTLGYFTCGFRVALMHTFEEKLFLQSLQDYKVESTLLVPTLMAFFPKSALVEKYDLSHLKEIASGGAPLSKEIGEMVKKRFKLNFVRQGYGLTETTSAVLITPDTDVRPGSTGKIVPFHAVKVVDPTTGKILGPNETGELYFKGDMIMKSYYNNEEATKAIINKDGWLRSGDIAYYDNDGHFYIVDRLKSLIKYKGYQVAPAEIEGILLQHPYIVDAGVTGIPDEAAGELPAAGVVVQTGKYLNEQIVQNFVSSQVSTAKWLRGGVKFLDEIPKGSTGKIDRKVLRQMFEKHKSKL
Chain of Delta-type opioid receptor (P41143 whole entry): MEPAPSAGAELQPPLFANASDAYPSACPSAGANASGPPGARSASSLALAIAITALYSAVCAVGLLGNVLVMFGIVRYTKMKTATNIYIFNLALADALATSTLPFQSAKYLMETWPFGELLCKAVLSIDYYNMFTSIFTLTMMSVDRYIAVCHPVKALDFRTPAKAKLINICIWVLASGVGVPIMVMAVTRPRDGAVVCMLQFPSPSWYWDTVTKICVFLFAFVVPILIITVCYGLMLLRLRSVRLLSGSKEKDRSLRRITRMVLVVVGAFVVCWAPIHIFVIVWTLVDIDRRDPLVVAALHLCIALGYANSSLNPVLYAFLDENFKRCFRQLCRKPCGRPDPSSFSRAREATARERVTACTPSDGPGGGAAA
Chain of 5-hydroxytryptamine receptor 5A (P47898 whole entry): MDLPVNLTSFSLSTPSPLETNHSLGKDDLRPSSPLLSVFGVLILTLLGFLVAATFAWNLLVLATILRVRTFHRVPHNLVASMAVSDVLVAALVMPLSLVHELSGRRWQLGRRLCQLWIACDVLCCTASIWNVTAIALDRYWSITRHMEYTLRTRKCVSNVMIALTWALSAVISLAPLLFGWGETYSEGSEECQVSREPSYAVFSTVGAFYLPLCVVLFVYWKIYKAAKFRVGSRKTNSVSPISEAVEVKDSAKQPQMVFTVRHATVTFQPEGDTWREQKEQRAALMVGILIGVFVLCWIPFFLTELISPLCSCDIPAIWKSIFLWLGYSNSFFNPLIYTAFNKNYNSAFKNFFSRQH
Chain of Mu-type opioid receptor (P35372 whole entry): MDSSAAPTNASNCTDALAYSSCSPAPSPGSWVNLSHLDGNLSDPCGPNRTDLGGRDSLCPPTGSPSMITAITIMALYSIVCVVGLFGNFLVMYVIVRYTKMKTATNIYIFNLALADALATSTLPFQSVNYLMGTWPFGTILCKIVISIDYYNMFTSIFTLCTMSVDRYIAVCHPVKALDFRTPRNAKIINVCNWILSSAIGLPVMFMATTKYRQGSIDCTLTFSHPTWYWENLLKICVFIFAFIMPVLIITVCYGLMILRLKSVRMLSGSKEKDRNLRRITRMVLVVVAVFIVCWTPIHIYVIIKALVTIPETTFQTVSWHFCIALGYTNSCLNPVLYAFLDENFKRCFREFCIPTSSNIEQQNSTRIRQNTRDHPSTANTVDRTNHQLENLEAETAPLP
Chain of Nucleotide-binding oligomerization domain-containing protein 2 (Q9HC29 whole entry, the tested form may be a part): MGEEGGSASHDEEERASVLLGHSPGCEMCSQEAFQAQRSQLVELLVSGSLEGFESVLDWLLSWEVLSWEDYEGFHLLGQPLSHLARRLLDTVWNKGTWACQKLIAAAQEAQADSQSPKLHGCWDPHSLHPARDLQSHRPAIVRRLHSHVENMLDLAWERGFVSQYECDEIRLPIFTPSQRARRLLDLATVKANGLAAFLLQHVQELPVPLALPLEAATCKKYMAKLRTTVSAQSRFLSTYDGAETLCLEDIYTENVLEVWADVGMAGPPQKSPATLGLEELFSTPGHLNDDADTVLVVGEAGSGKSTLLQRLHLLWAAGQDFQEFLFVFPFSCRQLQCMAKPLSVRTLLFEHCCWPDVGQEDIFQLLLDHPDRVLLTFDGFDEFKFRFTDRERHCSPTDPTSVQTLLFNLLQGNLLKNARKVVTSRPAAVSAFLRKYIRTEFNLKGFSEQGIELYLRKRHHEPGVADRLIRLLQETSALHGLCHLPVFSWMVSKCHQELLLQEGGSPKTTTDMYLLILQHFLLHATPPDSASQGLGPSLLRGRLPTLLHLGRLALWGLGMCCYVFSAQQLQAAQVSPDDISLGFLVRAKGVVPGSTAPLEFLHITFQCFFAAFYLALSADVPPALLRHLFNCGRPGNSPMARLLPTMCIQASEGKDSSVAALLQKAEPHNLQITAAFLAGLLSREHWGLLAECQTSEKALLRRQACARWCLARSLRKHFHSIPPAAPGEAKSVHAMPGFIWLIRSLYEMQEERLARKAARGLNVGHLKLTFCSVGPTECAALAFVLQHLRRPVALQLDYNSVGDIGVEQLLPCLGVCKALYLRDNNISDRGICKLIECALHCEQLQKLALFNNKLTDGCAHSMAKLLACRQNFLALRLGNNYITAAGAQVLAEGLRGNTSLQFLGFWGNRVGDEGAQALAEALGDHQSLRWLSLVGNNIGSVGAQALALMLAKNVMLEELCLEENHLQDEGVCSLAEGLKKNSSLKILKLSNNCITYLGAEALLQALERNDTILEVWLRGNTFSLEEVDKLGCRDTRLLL

A word on the AC50: it is the concentration giving half of the maximal activity seen. Consider `COc1ccc(C)cc1S(=O)(=O)N(C)CC(=O)N1CCC(C(N)=O)CC1`, for which the half-maximal activity concentration (AC50) in the test on Escherichia coli [1] is 25.7 µM (active); in the test with Escherichia coli [2], > 380 µM (inactive).
The EC50 is the midpoint of the concentration-response curve. A word on the IC50: it is the concentration needed to halve the response being measured. In the case of `Cc1cccc(-n2ncc3c(N(C)C4CCCCC4)ncnc32)c1`, the 50% effective concentration (EC50) with HEK293 [3] is 9.93 µM (active); in test [5], < 0.16 µM (active); in test [7], < 0.31 µM (inactive). In addition, the IC50 in the test with HEK293 [4] is 0.783 µM (active); with HEK293 [6] it was > 20 µM (inactive); with HEK293 [8] it was 6.81 µM (active); in the test with HEK293 [9], > 20 µM (inactive). The AC50 in [10] is 6.99 µM (active); in test [11] it was 0.121 µM (active); in test [12], 0.0758 µM (active); in [13], 40.2 µM (active).
In general, CC50 refers to the concentration at which the toxic effect on the cells reaches its halfway point. With `CN(C)CCNc1ccc2nnn3c4ccc(O)cc4c(=O)c1c23`, the results for the half-maximal activity concentration (AC50) (in [14]; in the test with A-375) were 4.73 µM (active) and 46 µM (active), respectively. Also, the CC50 in test [15] is 56.5 µM (active). Besides, in test [16], the half-maximal inhibitory concentration (IC50) was 62.6 µM (active).
For the compound `COc1ccc(C(CNC(=O)CCOc2ccccc2)N(C)C)cc1` (stereo unspecified), the EC50 in [17] was 1.06 µM (active); in [18], > 92.5 µM (inactive); at Mu-type opioid receptor, > 92.5 µM (inactive); in test [19] it was > 92.5 µM (inactive).

These data come from ChEMBL document CHEMBL1201862, “PubChem BioAssay data set” (2004).
